{"source": "patent EP4772186A1", "about": "“USE AND COMPOSITION OF POSTBIOTIC OF LACTOBACILLUS PARACASEI ET-22” (Inner Mongolia Yili Industrial Group Co., Ltd., priority 2023, dated 2025)", "tested_on": "VSC concentration", "experiment": "in vitro Halimeter determination of VSC concentration in saliva fermentation", "type": "cell-based, halitosis subjects (saliva)", "settings": "compared with CK group, anaerobic cultivation 10 hours", "experimental": "Fresh saliva was collected from 10 halitosis subjects (Halimeter index >120). Subjects were required not to consume any food or drink for 2 hours before donating saliva. Saliva was directly spat into a saliva collection tube, 5 ml per person, and mixed. The mixture was centrifuged at 4500 rpm for 10 minutes, and the supernatant was collected, aliquoted, and stored at -80°C for subsequent experimental studies.\n(§1) Lysate observation group: In a 10 ml sample vial, 100 µl of saliva was added first, followed by the separate addition of ET-22 viable bacteria (1.0×10^9 CFU/ml), ET-22 heat-inactivated bacterial cells (obtained by inactivating viable bacteria at 1.0×10^9 CFU/ml), and lysate (obtained by inactivating and then filtering viable bacteria at 1.0×10^9 CFU/ml), each at 100µl. Then, 1.8 ml of SHI medium was added. After filling with nitrogen, anaerobic cultivation was performed for 10 hours. Then, the obtained culture was placed in a 60°C water bath for 30-min incubation. VSC concentration was measured using the in vitro Halimeter method.\n(§2) Group of two nucleotides: In a 10 ml sample vial, 100 µl of saliva was added first, followed by the separate addition of ET-22 viable bacteria (1.0×10^9 CFU/ml), ET-22 heat-inactivated bacterial cells (obtained by inactivating viable bacteria at 1.0×10^9 CFU/ml), NAD, and FAD (500 µg/ml, 100 µg/ml, 10 µg/ml), each at 100µl. Then, 1.8 ml of SHI medium was added. After filling with nitrogen, anaerobic cultivation was performed for 10 hours. Then, the obtained culture was placed in a 60°C water bath for 30-min incubation. VSC concentration was measured using the in vitro Halimeter method.\nas §2, with “five organic acids:” for “two nucleotides:”, “heat-inactivating” for “inactivating”, “CFU/ml),” for “CFU/ml), NAD,”, “five organic acid components” for “FAD”\nas §2, with “Observation group” for “Group”, “four polypeptides:” for “two nucleotides:”, “heat-inactivating” for “inactivating”, “CFU/ml),” for “CFU/ml), NAD,”, “components of four polypeptides” for “FAD”\nas §1, with “Peptidoglycan” for “Lysate observation”, “peptidoglycan (peptidoglycan extracted from” for “lysate (obtained by inactivating and then filtering”, “CFU/ml).” for “CFU/ml), each at 100µl.”, “method. […]” for “method.”"}
{"smiles": "O=C(O)C(O)Cc1ccccc1", "note": "(centres unmarked) [2-hydroxy-3-phenylpropionic acid]", "values": [{"measurement": "VSC concentration", "setting": "high concentration (500 µg/ml)", "value": "significantly lower than that in the control group"}, {"measurement": "VSC concentration", "setting": "medium concentration (100 µg/ml)", "value": "significantly lower than that in the control group"}]}
